Data on two compounds can be found in BindingDB's records for patent US10202390 (Bristol-Myers Squibb Co., 2019).

The test concerns the target T1, Interleukin-1 receptor-associated kinase 4 (Homo sapiens, UniProt Q9NWZ3).
T1 sequence (Q9NWZ3 whole entry): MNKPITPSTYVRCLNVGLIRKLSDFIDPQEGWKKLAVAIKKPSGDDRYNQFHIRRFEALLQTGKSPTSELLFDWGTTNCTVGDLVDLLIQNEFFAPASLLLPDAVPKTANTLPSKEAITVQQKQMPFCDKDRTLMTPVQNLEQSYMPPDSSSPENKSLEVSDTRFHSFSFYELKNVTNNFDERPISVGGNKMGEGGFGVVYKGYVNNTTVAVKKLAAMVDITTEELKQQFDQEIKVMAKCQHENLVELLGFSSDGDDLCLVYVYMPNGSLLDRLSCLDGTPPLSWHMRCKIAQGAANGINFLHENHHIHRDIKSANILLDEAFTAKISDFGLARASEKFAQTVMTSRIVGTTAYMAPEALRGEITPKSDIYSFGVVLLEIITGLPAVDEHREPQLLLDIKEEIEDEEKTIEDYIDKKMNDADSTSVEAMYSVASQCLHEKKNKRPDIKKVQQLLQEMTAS
Briefly: Not found.
Excerpt: Not found

One may read the IC50 as the point on the concentration scale where inhibition reaches its midpoint. A high value points to weaker potency. Take `CC(C)Nc1cc(-c2cnc3cc(Cl)cnn23)ncc1-c1cnn(C2CCOCC2)c1` [US10202390, Example 2]: the IC50 was determined as 0.063 µM. In the case of `CC(C)(O)CCc1cn(-c2cnc(-c3cnn4cc(C#N)cnc34)cc2NC2COC2)nn1` [US10202390, Example 26] it was 0.01 µM.
